Data as given in patent US20080267947A1, “Cancer therapy with cantharidin and cantharidin analogs” (priority 2006, published 2008).
Read-outs that look alike come from different tables or passages of the source.

Tests used:
[1] = test system: leukemia stem cells from bone marrow of a patient with acute myelgenous leukemia (AML); assay: CAFC assay of leukemia stem cells treated with cantharidin and standard chemotherapy; type: cell-based, human; settings: 16 hours treatment, each of the concentrations tested; cobblestone areas after 5 weeks; FIG. 6
Experimental: (§1) Cobblestone assay: The cobblestone area-forming cell (CAFC) assay exploits a reproducible visual end point for the quantitation of cancer stem cells. Leukemia samples are added to adherent cultures of stromal cells, some embodiments MS-5 stromal cells. The cancer stem cells in the culture will migrate below the MS-5 stromal cells and form a colony of cells called a cobblestone that can be visual quantitated. To test the effect of cantharidin or norcantharidin on the cancer stem cell population using this assay, cells are first cultured in the presence of the drug. In some embodiments the cells are cultured for 16 hours. After this incubation, the cells are added to the stromal cultures. A reduction in the cobblestone area formation in cultures that were treated with the drug compared to the untreated cells represents cancer stem cell activity for the drug.
Samples of primary human cord blood as well as from the bone marrow of a patient with acute myelgenous leukemia (AML) were tested. Cantharidin and norcantharidin were dissolved in DMSO, and Ara-c and daunorubicin were prepared according to the supplier's instructions. In addition, untreated controls (diluent alone) for both normal and leukemic CD34+ cells were also tested. Cells were treated with varying concentrations of drug for 16 hours. […] After 5 weeks in culture, total cobblestone areas were counted visually using a microscope.

[2] = test system: MV4; 11 leukemia cells; assay: XTT cytotoxicity assay on MV4;11 leukemia cells, 5 days exposure; type: cell-based; settings: 5 days of exposure to drug, read-out: IC50, cytotoxicity against MV4;11 leukemia cells (XTT)
Experimental: (§2) Determination of cell viability using the XTT assay: In some cases, CD34+ cells are isolated from human cord blood using magnetic beads coated with anti-CD34 antibody. Isolated cells are then counted and aliquoted into 96-well plates and then incubated in the presence of varying concentrations of cantharidin or norcantharidin. Cell viability it measured by the addition of the XTT calorimetric reagent. Viability is determined by the absorbance of treated cultures at approximately 450-500 nm compared to untreated cultures. In other cases, the cells used in the assay may be a leukemia cell line, such as MV4; 11. The assay can also be used to determine the time course of cell killing by various compounds by performing the XTT assay on cultures that are incubated with the compounds for varying periods of time.
The cytotoxicity of Cantharidin and Norcantharidin against MV4; 11 leukemia cells was measured by a calorimetric assay using XTT. MV4; 11 cells were plated in 96-well plates and the following day, cells were exposed to varying doses of cantharidin and norcantharidin. After 5 days of exposure to drugs, 50 μL of 1 mg/mL XTT and 0.025 mM phenazine methosulfate (PMS) were added. The absorbance of the supernatant was measured at 450 and 630 nm of wells not treated with drug (with cells) as 100% and wells without cells as 0%.

[3] = test system: MV4; 11 cells; assay: XTT time course of killing of MV4;11 cells; type: cell-based; settings: at 72 hours
Experimental: as §2
The XTT assay was used to determine the time course of killing of MV4; 11 cells incubated with cantharidin and norcantharidin over time.
Cantharidin was dissolved in DMSO at different concentrations to ensure that final concentrations of DMSO are equivalent in all wells. To control for potential cytotoxic effects of DMSO itself, an equivalent amount of DMSO containing no drug was used as a control.
Norcantharidin was dissolved in DMSO at different concentrations to ensure that final concentrations of DMSO are equivalent in all wells. To control for potential cytotoxic effects of DMSO itself, an equivalent amount of DMSO containing no drug was used as a control.

[4] = XTT colorimetric cytotoxicity assay on cord blood CD34+ cells; type: cell-based; settings: CD34+ cells from normal human cord blood; FIG. 1; read-out: IC50, cytotoxicity against CD34+ cells (XTT)
Experimental: as §2
(§3) CD34^+ cells were obtained from normal human cord blood by magnetic bead selection using anti-CD34 antibody coated beads. The cytotoxicity of cantharidin and norcantharidin against these cells was measured by a colorimetric assay using XTT (sodium 3′-{1-[(phenylamino)-carbonyl]-3,4-tetrazolium}-bis(4-methoxy-6-nitro) benzene-sulfonic acid hydrate). […] The absorbance of the supernatant was measured at 450 and 630 nm of wells without drug (with cells) as 100% and wells without cells as 0%. […]

[5] = test system: CD34+ cells obtained from a leukemia patient (leukemic cancer stem cells); assay: Cobblestone area forming cell (CAFC) assay, leukemia patient versus cord blood CD34+ cells; type: cell-based, human; settings: 10 μM and 75 μM overnight; for sensitivity of leukemia cancer stem cells relative to normal stem cells (cord blood CD34+): CAFC, 5 weeks; for activity against leukemic cancer stem cells (cobblestone area counts vs control): cobblestone areas counted after 5 weeks on MS-5 monolayer, FIGS. 2 and 3
Experimental: as §1
Cells were treated with 10 μM and 75 μM cantharidin or norcantharidin overnight. To assay for stem cells by the cobblestone area forming cell (CAFC) assay, CD34^+ cells subsequent to drug treatment were co-cultured with the MS-5 monolayer in X-Eagle minimum essential medium (α-MEM) containing 10% heat-inactivated FCS, 10% horse serum, 1×10^−6 M hydrocortisone, 2 mM L-glutamine, and 100 U/mL penicillin/streptomycin. After 5 weeks in culture, total cobblestone areas were counted. FIGS. 2 and 3 show bar graphs representing cobblestone area counts in the presence of no drug (control) and 10 and 75 μM of cantharidin and norcantharidin, respectively, using CD34+ cells obtained from a leukemia patient, and CD34+normal stem cells isolated from human cord blood.

[6] = test system: CD34+ cells from normal human cord blood; assay: XTT colorimetric cytotoxicity assay on cord blood CD34+ cells; type: cell-based; settings: FIG. 1, read-out: IC50, cytotoxicity against CD34+ cells (XTT)
Experimental: as §2, §3

SMILES | sensitivity of leukemia stem cells compared with cytarabine or daunorubicin (CAFC) [1] | IC50 ([2]; Homo sapiens, MV4-11, 120 h) | viability at 30 µM ([3]; Homo sapiens, MV4-11, 30 μM, read-out: cell viability of MV4;11 cells) | viability at 100 µM ([3]; Homo sapiens, MV4-11, 100 μM, read-out: cell viability of MV4;11 cells) | IC50 [4] | sensitivity of leukemia cancer stem cells relative to normal stem cells (cord blood CD34+) [5] | activity against leukemic cancer stem cells (cobblestone area counts vs control) [5] | IC50 [2] | cell viability of MV4;11 cells ([3]; 30 μM) | cell viability of MV4;11 cells ([3]; 100 μM) | IC50 [6]
C[C@@]12C(=O)OC(=O)[C@]1(C)[C@H]1CC[C@@H]2O1 [cantharidin] | more sensitive | 7.5 µM | < 10% | < 10% | 6.5 µM | increased sensitivity | potent activity | – | – | – | –
O=C1OC(=O)[C@H]2[C@@H]1[C@@H]1CC[C@H]2O1 [norcantharidin] | – | – | – | – | – | increased sensitivity | potent activity | 24 µM | less than 10% | less than 10% | 52 µM
